# In ChEMBL document CHEMBL1146856, “Novel, orally bioavailable gamma-aminoamide CC chemokine receptor 2 (CCR2) antagonists” (J Med Chem, 2006):
# pIC50: −log10 of the molar value.
# Assays:
# [1] = Oral bioavailability in rat at 3 mg/kg; format: ADME, organism-based; conditions: in vivo
# [2] = molecular target: Substance-P receptor (Homo sapiens, UniProt P25103); test: Inhibition of NK1
# [3] = Half life in rat at 3 mg/kg; format: ADME, organism-based; parameters: dose 3 mg/kg; conditions: in vivo
# [4] = molecular target: T1, C-C chemokine receptor type 5 (Homo sapiens, UniProt P51681); test: Inhibition of CCR5
# Target sequence in this assay (P51681 whole entry): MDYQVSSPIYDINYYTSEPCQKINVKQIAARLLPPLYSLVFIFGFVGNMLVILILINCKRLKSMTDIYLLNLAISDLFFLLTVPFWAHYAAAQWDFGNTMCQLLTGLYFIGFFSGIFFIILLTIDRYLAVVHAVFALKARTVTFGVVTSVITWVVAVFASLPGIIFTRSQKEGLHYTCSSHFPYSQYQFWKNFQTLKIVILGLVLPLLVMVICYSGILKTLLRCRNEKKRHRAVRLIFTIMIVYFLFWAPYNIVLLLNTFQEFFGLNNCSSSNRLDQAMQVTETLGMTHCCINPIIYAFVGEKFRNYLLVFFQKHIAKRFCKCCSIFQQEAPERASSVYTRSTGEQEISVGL
# [5] = molecular target: T2, C-C chemokine receptor type 2 (Homo sapiens, UniProt P41597); test: Inhibition of [125I]MCP1 binding to CCR2 expressed in CHO cells; format: cell-based
# Target sequence in this assay (P41597 whole entry): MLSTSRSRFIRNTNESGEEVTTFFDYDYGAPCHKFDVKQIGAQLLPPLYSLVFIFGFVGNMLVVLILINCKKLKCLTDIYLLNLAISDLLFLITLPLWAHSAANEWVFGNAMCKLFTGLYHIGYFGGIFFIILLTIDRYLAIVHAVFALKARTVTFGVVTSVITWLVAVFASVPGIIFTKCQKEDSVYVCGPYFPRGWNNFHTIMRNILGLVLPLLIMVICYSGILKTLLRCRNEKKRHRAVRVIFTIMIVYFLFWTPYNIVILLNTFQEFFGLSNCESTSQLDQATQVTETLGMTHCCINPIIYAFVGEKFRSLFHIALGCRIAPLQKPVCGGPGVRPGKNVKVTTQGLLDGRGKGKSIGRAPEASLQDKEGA
# [6] = Plasma clearance in rat at 3 mg/kg; format: ADME, organism-based; parameters: dose 3 mg/kg
# [7] = system: Monocyte; test: Inhibition of MCP1-stimulated chemotaxis of human monocyte; format: functional, cell-based
# [8] = molecular target: T2, C-C chemokine receptor type 2; test: Inhibition of [125I]MCP1 binding to CCR2 expressed in CHO cells at 1 uM; format: cell-based
# Target sequence in this assay (P41597 whole entry, looked up): as the sequence (P41597 whole entry) above
# [9] = system: Monocyte; test: Inhibition of MCP1-stimulated chemotaxis of human monocyte at 1 uM; format: functional
# [10] = molecular target: T1, C-C chemokine receptor type 5; test: Inhibition of CCR5 at 0.01 uM
# Target sequence in this assay (P51681 whole entry, looked up): as the sequence (P51681 whole entry) above
# Sequence of Substance-P receptor (P25103 whole entry): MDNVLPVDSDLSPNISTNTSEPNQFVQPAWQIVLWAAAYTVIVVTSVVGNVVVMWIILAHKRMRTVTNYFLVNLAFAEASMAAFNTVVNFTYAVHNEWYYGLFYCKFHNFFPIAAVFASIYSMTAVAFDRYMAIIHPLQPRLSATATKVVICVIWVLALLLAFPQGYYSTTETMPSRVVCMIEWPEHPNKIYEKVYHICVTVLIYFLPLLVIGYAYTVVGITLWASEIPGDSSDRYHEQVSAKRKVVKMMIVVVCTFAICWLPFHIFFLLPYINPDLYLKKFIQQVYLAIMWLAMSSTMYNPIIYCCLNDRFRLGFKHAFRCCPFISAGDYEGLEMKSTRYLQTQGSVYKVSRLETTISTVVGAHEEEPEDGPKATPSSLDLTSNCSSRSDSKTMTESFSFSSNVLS
Compound,pIC50 [5],inhibition [8] [%],further results
O=C(NCc1cc(C(F)(F)F)cc(C(F)(F)F)c1)[C@@H](CCCN1CCC(c2ccccc2)CC1)c1ccc(F)cc1,5.96,,
CC1CN(CC[C@H](C(=O)NCc2cc(C(F)(F)F)cc(C(F)(F)F)c2)c2ccc(F)cc2)CCN1c1ccccc1 (stereo not given in full),6.11,,
CN(C)CCN[C@H](C(=O)NCc1cc(C(F)(F)F)cc(C(F)(F)F)c1)c1ccc(F)cc1,6.14,,
C[C@@H]1CN(CC[C@H](C(=O)NCc2cc(C(F)(F)F)cc(C(F)(F)F)c2)c2ccc(F)cc2)CC[C@]12C=Cc1ccccc12,6.92,,pIC50 [7]: 7.21
O=C(NCc1cc(C(F)(F)F)cc(C(F)(F)F)c1)[C@@H](CCN1CCC(c2ccccc2)CC1)c1ccc(F)cc1,6.82,,pIC50 [2]: 7.62; inhibition at 1 µM [9]: 40%; pIC50 [4]: 7.14
O=C(NCc1cc(C(F)(F)F)cc(C(F)(F)F)c1)[C@@H](CCN1CCC2(CCc3ccccc32)CC1)c1ccc(F)cc1,6.49,,
O=C(NCc1cc(C(F)(F)F)cc(C(F)(F)F)c1)[C@@H](CCN1CCN(c2ccccc2)CC1)c1ccc(F)cc1,,11,
C[C@H]1CN(CC[C@H](C(=O)NCc2cc(C(F)(F)F)cc(C(F)(F)F)c2)c2ccc(F)cc2)CC[C@@]12C=Cc1ccccc12,7.23,,pIC50 [2]: 7.55; inhibition [10]: 26%; pIC50 [7]: 7.39
CC1CN(CC[C@H](C(=O)NCc2cc(C(F)(F)F)cc(C(F)(F)F)c2)c2ccc(F)cc2)CCC12C=Cc1ccccc12 (stereo not given in full),7.35,,
O=C(NCc1cc(C(F)(F)F)cc(C(F)(F)F)c1)[C@@H](CCN1CCCC(Cc2ccccc2)C1)c1ccc(F)cc1 (stereo not given in full),,43,
CCC1CN(CC[C@H](C(=O)NCc2cc(C(F)(F)F)cc(C(F)(F)F)c2)c2ccc(F)cc2)CCC12C=Cc1ccccc12 (stereo not given in full),6.36,,
O=C(NCc1cc(C(F)(F)F)cc(C(F)(F)F)c1)[C@H](CCN1CCC(c2ccccc2)CC1)c1ccc(F)cc1,6.03,,
CC(CN1CCC(c2ccccc2)CC1)[C@H](CNCc1cc(C(F)(F)F)cc(C(F)(F)F)c1)c1ccc(F)cc1 (stereo not given in full),,0,
O=C(NCc1cc(C(F)(F)F)cc(C(F)(F)F)c1)[C@@H](CCCN1CCCCC1)c1ccc(F)cc1,6.00,,
O=C(NCc1cc(C(F)(F)F)cc(C(F)(F)F)c1)[C@@H](CCN1CCC(c2ccsc2)CC1)c1ccc(F)cc1,6.80,,
O=C(NCc1cc(C(F)(F)F)cc(C(F)(F)F)c1)[C@@H](CCN1CC(c2ccccc2)C1)c1ccc(F)cc1,,18,

# Second part, led by results:
pIC50 [5],inhibition [8] [%],Compound,further results
7.10,,O=C(NCc1cc(C(F)(F)F)cc(C(F)(F)F)c1)[C@@H](CCN1CCC2(C=Cc3ccccc32)CC1)c1ccc(F)cc1,bioavailability [1]: 38%; pIC50 [2]: 7.30; half-life [3]: 8 h; pIC50 [4]: 7.52; clearance [6]: 6 mL/min/kg; pIC50 [7]: 6.75
5.97,,C[C@](CCN1CCC(c2ccccc2)CC1)(CNCc1cc(C(F)(F)F)cc(C(F)(F)F)c1)c1ccc(F)cc1,
,44,O=C(NCc1cc(C(F)(F)F)cc(C(F)(F)F)c1)[C@@H](CCN1CCC(c2ccccc2)C1)c1ccc(F)cc1 (stereo not given in full),
,6,O=C(NCc1cc(C(F)(F)F)cc(C(F)(F)F)c1)[C@@H](CCN1CC[C@@H]2c3ccccc3CC[C@H]2C1)c1ccc(F)cc1,
,20,O=C(NCc1cc(C(F)(F)F)cc(C(F)(F)F)c1)[C@@H](CCN1CCC(C2CCCCC2)CC1)c1ccc(F)cc1,
6.85,,C[C@H]1CN(CC[C@H](CNCc2cc(C(F)(F)F)cc(C(F)(F)F)c2)c2ccc(F)cc2)CC[C@@H]1c1ccccc1,
,3,O=C(NCc1cc(C(F)(F)F)cc(C(F)(F)F)c1)[C@@H](CCN1CCCC(c2ccccc2)CC1)c1ccc(F)cc1 (stereo not given in full),
5.96,,O=C(NCc1cc(C(F)(F)F)cc(C(F)(F)F)c1)[C@@H](CCN1CCCCC1)c1ccc(F)cc1,
,14,C=CCN1CCC(N(CC[C@H](C(=O)NCc2cc(C(F)(F)F)cc(C(F)(F)F)c2)c2ccc(F)cc2)C(=O)OCc2ccccc2)CC1,
5.82,,CC(C[C@H](C(=O)NCc1cc(C(F)(F)F)cc(C(F)(F)F)c1)c1ccc(F)cc1)N1CCC(c2ccccc2)CC1 (stereo not given in full),
6.15,,C[C@@H]1CN(CC[C@H](CNCc2cc(C(F)(F)F)cc(C(F)(F)F)c2)c2ccc(F)cc2)CC[C@@H]1c1ccccc1,
